This is an account of results in US9771370B2, “Compounds for the inhibition of indoleamine-2,3-dioxygenase” (Merck Patent GmbH, priority 2014, dated 2017).

Several values for one entry are separate records, joined by “and”; a condition that tells them apart may be missing. Equal values may be shown once.

Recombinant human IDO, sequence (P14902 whole entry): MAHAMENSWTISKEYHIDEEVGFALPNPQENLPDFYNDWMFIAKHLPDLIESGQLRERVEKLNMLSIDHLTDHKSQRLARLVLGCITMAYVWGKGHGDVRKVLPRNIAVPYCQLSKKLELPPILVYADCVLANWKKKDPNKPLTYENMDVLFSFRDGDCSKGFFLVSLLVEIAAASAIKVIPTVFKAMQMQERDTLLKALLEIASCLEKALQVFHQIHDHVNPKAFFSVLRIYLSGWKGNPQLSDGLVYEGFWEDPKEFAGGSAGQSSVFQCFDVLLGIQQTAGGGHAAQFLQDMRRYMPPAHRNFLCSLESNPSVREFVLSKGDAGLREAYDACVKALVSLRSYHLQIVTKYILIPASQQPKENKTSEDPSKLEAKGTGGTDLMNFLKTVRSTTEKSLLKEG

This assay deals with Recombinant human IDO (Homo sapiens, UniProt P14902). Put plainly: Bridge-IT tryptophan fluorescence assay of human IDO-1 inhibition. It counts as biochemical. Conditions: recombinant human IDO 7.5 nM, L-tryptophan. The essentials:
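One variant ran L-Trp at 100 μM for 90 min at 37 °C. The other pre-incubated compound for 30 min at 25 °C, then ran 50 μM L-Trp for 60 min at 25 °C.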
Turning to `OC(CC1c2ncccc2-c2cncn21)c1ccccc1` (stereo not drawn) [Compound 12b, 1-Phenyl-2-[4,6,9-triazatricyclo[6.4.0.0^[2,6]]dodeca-1(8),2,4,9,11-pentaen-7-yl]ethan-1-ol], the half-inhibitory concentration (IC50) (usually the midpoint of a concentration-inhibition curve) is above 1000 nM.
Under `O[C@H]1CC[C@](F)(CC[C@@H]2c3ccccc3-c3cncn32)CC1` [Compound 14a, (1R,4s)-4-(2-((R)-5H-imidazo[5,1-a]isoindol-5-yl)ethyl)-4-fluorocyclohexan-1-ol] stands above 1000 nM; under `O[C@H]1CC[C@](F)(CC[C@H]2c3ccccc3-c3cncn32)CC1` [Compound 14b, (1S,4s)-4-(2-((S)-5H-imidazo[5,1-a]isoindol-5-yl)ethyl)-4-fluorocyclohexan-1-ol], below 100 nM.
Under `Fc1ccc2c(n1)C(CCC1(F)CCCCC1)n1cncc1-2` (stereo not drawn) [Compound 17, 10-fluoro-7-[2-(1-fluorocyclohexyl)ethyl]-4,6,9-triazatricyclo[6.4.0.0^[2,6]]dodeca-1(8),2,4,9,11-pentaene] stands 100 to 1000 nM; under `NC(CC1c2ncccc2-c2cncn21)C1CCCCC1` (stereo not drawn) [Compound 21a, 1-cyclohexyl-2-[4,6,9-triazatricyclo[6.4.0.0^[2,6]]dodeca-1(8),2,4,9,11-pentaen-7-yl]ethan-1-amine], above 1000 nM.
Consider `OC(CC1c2nc(F)ccc2-c2cncn21)C1CCCCC1` (stereo not drawn) [Compound 31a, 1-cyclohexyl-2-[10-fluoro-4,6,9-triazatricyclo[6.4.0.0^[2,6]]dodeca-1(8),2,4,9,11-pentaen-7-yl]ethan-1-ol], for which the half-inhibitory concentration (IC50) was 100 to 1000 nM.
The figure for `COc1ccc2c(n1)C(CC(O)C1CCC(F)(F)CC1)n1cncc1-2` (stereo not drawn) [Compound 33a, 1-(4,4-difluorocyclohexyl)-2-[10-methoxy-4,6,9-triazatricyclo[6.4.0.0^[2,6]]dodeca-1(8),2,4,9,11-pentaen-7-yl]ethan-1-ol] is 100 to 1000 nM; for `COc1cccc2c1-c1cncn1C2CCC1(F)CCC(O)CC1` (stereo not drawn) [Compound 41a, 4-fluoro-4-(2-(9-methoxy-5H-imidazo[5,1-a]isoindol-5-yl)ethyl)cyclohexanol] it is above 1000 nM.
In the case of `Oc1cccc2c1-c1cncn1C2CCC1(F)CCC(O)CC1` (stereo not drawn) [Compound 44a, 5-(2-(1-fluoro-4-hydroxycyclohexyl)ethyl)-5H-imidazo[5,1-a]isoindol-9-ol], the IC50 was 100 to 1000 nM.
For the compound `Fc1ccc2c(n1)C(CCC1(F)CCC(F)(F)CC1)n1cncc1-2` (stereo not drawn) [Compound 46, 10-fluoro-7-[2-(1,4,4-trifluorocyclohexyl)ethyl]-4,6,9-triazatricyclo[6.4.0.0^[2,6]]dodeca-1(8),2,4,9,11-pentaene], the IC50 is above 1000 nM.
For `OC1CCC(CCC2c3ncccc3-c3cncn32)CC1` (stereo not drawn) [Compound 47, 4-(2-[4,6,9-triazatricyclo[6.4.0.0^[2,6]]dodeca-1(8),2,4,9,11-pentaen-7-yl]ethyl)cyclohexan-1-ol], the IC50 is above 1000 nM.
As for `FC1(F)CCC(CCC2c3ncccc3-c3cncn32)CC1` (stereo not drawn) [Compound 49, 7-[2-(4,4-difluorocyclohexyl)ethyl]-4,6,9-triazatricyclo[6.4.0.0^[2,6]]dodeca-1(8),2,4,9,11-pentaene], the IC50 is 100 to 1000 nM.
Under `c1cnc2c(c1)-c1cncn1C2CCC1CCCCC1` (stereo not drawn) [Compound 50, 7-(2-cyclohexylethyl)-4,6,9-triazatricyclo[6.4.0.0^[2,6]]dodeca-1(8),2,4,9,11-pentaene] stands 100 to 1000 nM; under `CC1(C)CCC(CCC2c3ncccc3-c3cncn32)CC1` (stereo not drawn) [Compound 51, 7-[2-(4,4-dimethylcyclohexyl)ethyl]-4,6,9-triazatricyclo[6.4.0.0^[2,6]]dodeca-1(8),2,4,9,11-pentaene], above 1000 nM.
Take `OC(CC1c2nc(Cl)ccc2-c2cncn21)C1CCC(F)(F)CC1` (stereo not drawn) [Compound 52b, 2-[10-chloro-4,6,9-triazatricyclo[6.4.0.0^[2,6]]dodeca-1(8),2,4,9,11-pentaen-7-yl]-1-(4,4-difluorocyclohexyl)ethan-1-ol]: the IC50 is 100 to 1000 nM.
In the case of `COc1ccc2c(n1)C(CC(O)C1CCC3(CC1)CC3)n1cncc1-2` (stereo not drawn) [Compound 53a, 2-[10-methoxy-4,6,9-triazatricyclo[6.4.0.0^[2,6]]dodeca-1(8),2,4,9,11-pentaen-7-yl]-1-[spiro[2.5]octan-6-yl]ethan-1-ol], the 50% inhibitory concentration (IC50) is 100 to 1000 nM.
Turning to `OC(CC1c2nc(C3CC3)ccc2-c2cncn21)C1CCCCC1` (stereo not drawn) [Compound 56a, 1-cyclohexyl-2-[10-cyclopropyl-4,6,9-triazatricyclo[6.4.0.0^[2,6]]dodeca-1(8),2,4,9,11-pentaen-7-yl]ethan-1-ol], the IC50 is below 100 nM.
For `OC(CC1c2nc(C3CC3)ccc2-c2cncn21)C1CCC(F)(F)CC1` (stereo not drawn) [Compound 57a, 2-[10-cyclopropyl-4,6,9-triazatricyclo[6.4.0.0^[2,6]]dodeca-1(8),2,4,9,11-pentaen-7-yl]-1-(4,4-difluorocyclohexyl)ethan-1-ol], the IC50 was above 1000 nM.
Regarding `NC(=O)C1CCC(C(O)CC2c3ncccc3-c3cncn32)CC1` (stereo not drawn) [Compound 63a, 4-[1-hydroxy-2-[4,6,9-triazatricyclo[6.4.0.0^[2,6]]dodeca-1(8),2,4,9,11-pentaen-7-yl]ethyl]cyclohexane-1-carboxamide], the IC50 is above 1000 nM.
For `OC(CC1c2ncncc2-c2cncn21)C1CCCCC1` (stereo not drawn) [Compound 67a, 1-cyclohexyl-2-[4,6,9,11-tetraazatricyclo[6.4.0.0^[2,6]]dodeca-1(8),2,4,9,11-pentaen-7-yl]ethan-1-ol], the IC50 is > 1000 nM and 100 to 1000 nM.
With `OCC1CCC(C(O)CC2c3ncccc3-c3cncn32)CC1` (stereo not drawn) [Compound 73a, 1-[4-(hydroxymethyl)cyclohexyl]-2-[4,6,9-triazatricyclo[6.4.0.0^[2,6]]dodeca-1(8),2,4,9,11-pentaen-7-yl]ethan-1-ol], the half-maximal inhibitory concentration (IC50) is above 1000 nM.
Take `OC1CCC(C(F)(F)CC2c3c(F)cccc3-c3cncn32)CC1` (stereo not drawn) [Compound 75a, 4-(1,1-difluoro-2-[6-fluoro-5H-imidazo[4,3-a]isoindol-5-yl]ethyl)cyclohexan-1-ol]: the IC50 was below 100 nM.
The figure for `OC1(C2CCC(F)(CCC3c4c(F)cccc4-c4cncn43)CC2)CC1` (stereo not drawn) [Compound 85b, 1-[4-fluoro-4-(2-[6-fluoro-5H-imidazo[4,3-a]isoindol-5-yl]ethyl)cyclohexyl]cyclopropan-1-ol] is 100 to 1000 nM; for `CC(C)(O)C1CCC(F)(CCC2c3c(F)cccc3-c3cncn32)CC1` (stereo not drawn) [Compound 86a, 2-[4-fluoro-4-(2-[6-fluoro-5H-imidazo[4,3-a]isoindol-5-yl]ethyl)cyclohexyl]propan-2-ol] it is 100 to 1000 nM; for `OC1CCC(F)(CCC2c3nccc(F)c3-c3cncn32)CC1` (stereo not drawn) [Compound 103b, 4-fluoro-4-(2-[12-fluoro-4,6,9-triazatricyclo[6.4.0.0^[2,6]]dodeca-1(8),2,4,9,11-pentaen-7-yl]ethyl)cyclohexan-1-ol] it is above 1000 nM.
The figure for `OC1(C2CCC(F)(CCC3c4c(Cl)cccc4-c4cncn43)CC2)CC1` (stereo not drawn) [Compound 106b, 1-[4-(2-[6-chloro-5H-imidazo[4,3-a]isoindol-5-yl]ethyl)-4-fluorocyclohexyl]cyclopropan-1-ol] is 100 to 1000 nM; for `CC(C)(O)C1CCC(F)(CCC2c3c(Cl)cccc3-c3cncn32)CC1` (stereo not drawn) [Compound 107b, 2-[4-(2-[6-chloro-5H-imidazo[4,3-a]isoindol-5-yl]ethyl)-4-fluorocyclohexyl]propan-2-ol] it is 100 to 1000 nM.
As to `OC(CC1c2ncccc2-c2cncn21)C1(F)CCCCC1` (stereo not drawn) [Compound 109b, 1-(1-fluorocyclohexyl)-2-[4,6,9-triazatricyclo[6.4.0.0^[2,6]]dodeca-1(8),2,4,9,11-pentaen-7-yl]ethan-1-ol], the IC50 is 100 to 1000 nM.
For `O=C(C1CCC(F)(CCC2c3c(F)cccc3-c3cncn32)CC1)N1CCCCC1` (stereo not drawn) [Compound 110a], the IC50 is below 100 nM.
Under `CN(C)C(=O)C1CCC(F)(CCC2c3c(F)cccc3-c3cncn32)CC1` (stereo not drawn) [Compound 111b, 4-fluoro-4-(2-[6-fluoro-5H-imidazo[4,3-a]isoindol-5-yl]ethyl)-N,N-dimethylcyclohexane-1-carboxamide] stands 100 to 1000 nM.
